Test results as given in patent US11247985B2, “Phenyl indole allosteric inhibitors of P97 ATPase” (University of Pittsburgh—Of the Commonwealth System of …, priority 2015, dated 2022).

target: p97 ATPase WT (Homo sapiens (Human), UniProt P55072); assay: p97 ADP-Glo assay; format: biochemical; conditions: Table 3; read-out: ADPGlo IC50
Description: ADP-Glo™ (Promega Corp.) is a bioluminescent, homogeneous assay that measures ADP formed from a biochemical reactions. Because of its high sensitivity, the assay is suitable for monitoring enzyme activities at very early substrate conversions requiring very low amount of enzymes.
The ADP-Glo assay can be conducted as described in Chou, T.-F.; Bulfer, S. L.; Weihl, C.

Chain of p97 ATPase WT (P55072 whole entry): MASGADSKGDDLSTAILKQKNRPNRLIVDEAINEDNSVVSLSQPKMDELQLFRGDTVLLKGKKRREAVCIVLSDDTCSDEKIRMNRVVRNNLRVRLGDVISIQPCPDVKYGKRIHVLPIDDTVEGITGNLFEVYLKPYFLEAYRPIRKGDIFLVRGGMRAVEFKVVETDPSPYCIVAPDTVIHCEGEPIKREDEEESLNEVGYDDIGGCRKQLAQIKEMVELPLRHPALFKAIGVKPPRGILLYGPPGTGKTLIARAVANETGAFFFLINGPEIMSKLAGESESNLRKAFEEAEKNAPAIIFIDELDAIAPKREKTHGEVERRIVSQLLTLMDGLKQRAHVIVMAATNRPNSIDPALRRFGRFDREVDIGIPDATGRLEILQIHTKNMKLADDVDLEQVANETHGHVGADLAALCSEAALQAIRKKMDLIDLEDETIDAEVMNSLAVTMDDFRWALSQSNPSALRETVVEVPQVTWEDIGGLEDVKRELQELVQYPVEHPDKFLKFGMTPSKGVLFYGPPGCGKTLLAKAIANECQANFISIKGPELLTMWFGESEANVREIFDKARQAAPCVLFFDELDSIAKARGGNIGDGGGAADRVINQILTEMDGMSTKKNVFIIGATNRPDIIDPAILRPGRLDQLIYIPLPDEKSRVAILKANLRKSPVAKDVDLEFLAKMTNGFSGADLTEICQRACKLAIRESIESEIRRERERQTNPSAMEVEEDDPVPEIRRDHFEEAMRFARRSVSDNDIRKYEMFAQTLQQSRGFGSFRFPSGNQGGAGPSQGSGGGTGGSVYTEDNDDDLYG

IC50 | SMILES
630 nM | CNC(=O)CCNC1CCN(c2cccc(-c3cc4cc(F)ccc4[nH]3)c2)CC1
170 nM | c1cc(-c2cc3ccccc3[nH]2)cc(N2CCC(NCCN3CCN(CC4CC4)CC3)CC2)c1
640 nM | CCC(C)N1CCN(CCCNC2CCN(c3cccc(-c4cc5ccccc5[nH]4)c3)CC2)CC1 (stereo not shown)
140 nM | C[C@@H]1CN(CCNC2CCN(c3cccc(-c4cc5ccccc5[nH]4)c3)CC2)C[C@H](C)N1C
660 nM | COc1ccc2[nH]c(-c3cccc(N4CCC(NCCN5CCN(C(C)C)CC5)CC4)c3)cc2c1
380 nM | CN1CCC(NC2CCN(c3cccc(-c4cc5ccccc5[nH]4)c3)CC2)CC1
670 nM | CCN(CC)C(=O)CCNC1CCN(c2cccc(-c3cc4cc(F)ccc4[nH]3)c2)CC1
380 nM | CN1CCN(CCNC2CCN(c3cccc(-c4cc5ccccc5[nH]4)c3)CC2)CC1
680 nM | [N-]=[N+]=Nc1cccc(CNC2CCN(c3cccc(-c4cc5cc(F)ccc5[nH]4)c3)CC2)c1
190 nM | CCN1CCN(CCNC2CCN(c3cccc(-c4cc5ccccc5[nH]4)c3)CC2)CC1
700 nM | O=S1(=O)CCN(CCNC2CCN(c3cccc(-c4cc5ccccc5[nH]4)c3)CC2)CC1
450 nM | CN1CCN(C(C)(C)CNC2CCN(c3cccc(-c4cc5ccccc5[nH]4)c3)CC2)CC1
710 nM | CN(C)CCNC1CCN(c2cccc(-c3cc4cc(F)ccc4[nH]3)c2)CC1
300 nM | c1ccc(CN2CCN(CCNC3CCN(c4cccc(-c5cc6ccccc6[nH]5)c4)CC3)CC2)cc1
760 nM | NC(=O)CCNC1CCN(c2cccc(-c3cc4cc(F)ccc4[nH]3)c2)CC1
800 nM | c1cc(-c2cc3ccccc3[nH]2)cc(N2CCC(NCCCN3CCOCC3)CC2)c1
110 nM | Cc1ccc(N2CCC(NC3CCN(C(C)C)CC3)CC2)cc1-c1cc2cc(C#N)ccc2[nH]1
5600 nM | [N-]=[N+]=Nc1ccc(NCCNC2CCN(c3cccc(-c4cc5ccccc5[nH]4)c3)CC2)cc1
110 nM | CCC(C)N1CCN(CCNC2CCN(c3cccc(-c4cc5ccccc5[nH]4)c3)CC2)CC1 (stereo not shown)
5800 nM | CC(C)N1CCN(CC=C2CCN(c3cccc(-c4cc5ccccc5[nH]4)c3)CC2)CC1
120 nM | CC(C)N1CCN(CCNC2CCN(c3cccc(-c4cc5cc(Cl)ccc5[nH]4)c3)CC2)CC1
6000 nM | CC(C)N1CCN(CCC2CCN(c3cccc(-c4cc5ccccc5[nH]4)c3)CC2)CC1

IC50 | SMILES
120 nM | CC(C)N1CCN(C(=O)CCNC2CCN(c3cccc(-c4cc5cc(F)ccc5[nH]4)c3)CC2)CC1
130 nM | CC(C)N1CCC(NC2CCN(c3cccc(-c4cc5ccccc5[nH]4)c3)CC2)CC1
6100 nM | CC(C)N1CCN(CCNC2CCN(c3cccc(-c4cc5ccc(C#N)cc5[nH]4)c3)CC2)CC1
130 nM | CN1CCC(NC2CCN(c3cccc(-c4cc5cc(C#N)ccc5[nH]4)c3)CC2)CC1
6200 nM | CC(C)[C@H]1CC[C@H](NC2CCN(c3cccc(-c4cc5cc(C#N)ccc5[nH]4)c3)CC2)CC1
130 nM | CC(C)N1CCN(C2(CNC3CCN(c4cccc(-c5cc6cc(F)ccc6[nH]5)c4)CC3)CCC2)CC1
7100 nM | CC(C)N1CCN(CCNC2CCN(c3cccc(-c4nc5ccccc5n4-c4ccc(C(c5ccccc5)c5ccccc5)cc4)c3)CC2)CC1
130 nM | CC(C)(C)N1CCN(CCNC2CCN(c3cccc(-c4cc5ccccc5[nH]4)c3)CC2)CC1
7340 nM | CC(C)N1CCN(CCNC(=O)CC2CCN(c3cccc(-c4cc5ccccc5[nH]4)c3)CC2)CC1
140 nM | CN1CCN(C2(CNC3CCN(c4cccc(-c5cc6ccccc6[nH]5)c4)CC3)CCC2)CC1
7500 nM | CC(C)N1CCC(NC2CCN(c3cccc(-c4cc5cc(S(=O)(=O)NCc6ccccc6)ccc5[nH]4)c3)CC2)CC1
140 nM | CC(C)N1CCN(C(=O)CCNC2CCN(c3cccc(-c4cc5ccccc5[nH]4)c3)CC2)CC1
7580 nM | CC(C)N1CCN(CCNC(=O)C=C2CCN(c3cccc(-c4cc5ccccc5[nH]4)c3)CC2)CC1
140 nM | Cc1ccc(N2CCC(NCCN3CCN(C(C)C)CC3)CC2)cc1-c1cc2ccccc2[nH]1
7600 nM | CC(C)N1CCN(CC(=O)NC2CCN(c3cccc(-c4cc5ccccc5[nH]4)c3)CC2)CC1
150 nM | CC(C)N1CCCN(CCNC2CCN(c3cccc(-c4cc5ccccc5[nH]4)c3)CC2)CC1
8000 nM | CC(C)N1CCN(CCNC2CCN(c3cncc(-c4cc5ccccc5[nH]4)c3)CC2)CC1
150 nM | CN1CCN(C(=O)CCNC2CCN(c3cccc(-c4cc5cc(F)ccc5[nH]4)c3)CC2)CC1
8600 nM | CC(C)N1CCC(NC2CCN(c3cccc(-c4cc5cc(S(N)(=O)=O)ccc5[nH]4)c3)CC2)CC1
150 nM | COC(=O)c1ccc2[nH]c(-c3cccc(N4CCC(NCCN5CCN(C(C)C)CC5)CC4)c3)cc2c1
9300 nM | CC(C)N1CCN(CCNC2CCN(c3cccc(-c4[nH]c5ccc(F)cc5c4-c4c(-c5cccc(N6CCC(NCCN7CCN(C(C)C)CC7)CC6)c5)[nH]c5ccc(F)cc45)c3)CC2)CC1
150 nM | CC(C)N1CCN(C(=O)CCNC2CCN(c3cccc(-c4cc5cc(C#N)ccc5[nH]4)c3)CC2)CC1

IC50 | SMILES
9700 nM | O=C(Nc1ccccn1)C1CCN(c2cccc(-c3cc4cc(F)ccc4[nH]3)c2)CC1
160 nM | N#Cc1ccc2[nH]c(-c3cccc(N4CCC(NCc5cccc(N=[N+]=[N-])c5)CC4)c3)cc2c1
11000 nM | CC(C)N1CCN(CCNC2CCN(c3cccc(-c4cc5c([nH]4)CCNC5)c3)CC2)CC1
11000 nM | Fc1ccc2[nH]c(-c3cccc(N4CCC(NCCc5c[nH]c6ccccc56)CC4)c3)cc2c1
180 nM | CN1CCC(NC2CCN(c3cccc(-c4cc5cc(F)ccc5[nH]4)c3)CC2)CC1
12000 nM | Cc1c(-c2cccc(N3CCC(NCCN4CCN(C(C)C)CC4)CC3)c2)[nH]c2ccccc12
200 nM | CC(C)N1CCN(CCNC2CCN(c3cccc(-c4cc5cc(N=[N+]=[N-])ccc5[nH]4)c3)CC2)CC1
12000 nM | CC(C)N1CCN(CCOC2CCN(c3cccc(-c4cc5ccccc5[nH]4)c3)CC2)CC1
13600 nM | CC(C)N1CCN(CCNC2CCN(C(=O)c3cccc(-c4cc5ccccc5[nH]4)c3)CC2)CC1
260 nM | CN1CCN(C2(CNC3CCN(c4cccc(-c5cc6ccccc6[nH]5)c4)CC3)CCCCC2)CC1
14000 nM | Cc1c(-c2cc3ccccc3[nH]2)cccc1N1CCC(NCCN2CCN(C(C)C)CC2)CC1
290 nM | N#Cc1ccc2[nH]c(-c3cccc(N4CCC(NCc5cccnc5)CC4)c3)cc2c1
14000 nM | CC(C)N1CCC(NC2CCN(c3cccc(-c4cc5cc(S(=O)(=O)NC(C)(C)C)ccc5[nH]4)c3)CC2)CC1
290 nM | CN1CCN(C(=O)CCNC2CCN(c3cccc(-c4cc5ccccc5[nH]4)c3)CC2)CC1
15000 nM | Cc1c(-c2cc3ccccc3[nH]2)cccc1N1CCC(NC2CCN(C)CC2)CC1
310 nM | c1cc(-c2cc3ccccc3[nH]2)cc(N2CCC(NCCN3CCNCC3)CC2)c1
15800 nM | CC(C)N1CCC(NC2CCN(c3nnc(-c4cc5cc(F)ccc5[nH]4)o3)CC2)CC1
320 nM | c1cc(-c2cc3ccccc3[nH]2)cc(N2CCC(NCCN3CCCNCC3)CC2)c1
16000 nM | CN1CCN(C2(CNC3CCN(c4cccc(-c5cc6cc(S(C)(=O)=O)ccc6[nH]5)c4)CC3)CCC2)CC1
320 nM | CN1CCN(C(=O)CCNC2CCN(c3cccc(-c4cc5cc(C#N)ccc5[nH]4)c3)CC2)CC1
16000 nM | CON(C)C(=O)c1ccc2[nH]c(-c3cccc(N4CCC(NCCN5CCN(C(C)C)CC5)CC4)c3)cc2c1
320 nM | Cc1ccc(N2CCC(NCC3(N4CCN(C(C)C)CC4)CCC3)CC2)cc1-c1cc2cc(F)ccc2[nH]1

IC50 | SMILES
17000 nM | FC(F)(F)C(c1ccccc1)N1CCN(CCNC2CCN(c3cccc(-c4cc5ccccc5[nH]4)c3)CC2)CC1 (stereo not shown)
330 nM | CC(C)N1CCN(CCNC2CCN(c3cccc(-c4cc5cc(F)c(F)cc5[nH]4)c3)CC2)CC1
340 nM | Fc1ccc2[nH]c(-c3cccc(N4CCC(NCc5cccnc5)CC4)c3)cc2c1
20000 nM | CC(C)N1CCN(CCNC2CCN(c3cccc(-c4cc5ccccc5o4)c3)CC2)CC1
350 nM | Cc1ccc(N2CCC(NC3CCN(C)CC3)CC2)cc1-c1cc2ccccc2[nH]1
20000 nM | CC(C)N1CCC(NC2CCN(c3cccc(-c4cc5cc(S(C)(=O)=O)ccc5[nH]4)c3)CC2)CC1
370 nM | CC(C)N1CCN(CCNC2CCN(c3ccc4c(c3)-c3[nH]c5ccccc5c3CC4)CC2)CC1
21000 nM | CC(C)N1CCN(CCNC2CCN(c3cccc(-c4cc5cc(S(F)(F)(F)(F)F)ccc5[nH]4)c3)CC2)CC1
370 nM | CC(C)N1CCN(CCCNC2CCN(c3cccc(-c4cc5ccccc5[nH]4)c3)CC2)CC1
22000 nM | Cc1c(-c2cccc(N3CCC(NC4CCN(C)CC4)CC3)c2)[nH]c2ccccc12
410 nM | CC(C)N1CCN(CCNC2CCN(c3ccc(F)c(-c4cc5ccccc5[nH]4)c3)CC2)CC1
23000 nM | Cc1ncncc1NC(=O)c1cccc(N2CCC(NCCN3CCN(C(C)C)CC3)CC2)c1
430 nM | N#Cc1ccc2[nH]c(-c3cccc(N4CCC(NCc5ccccc5)CC4)c3)cc2c1
23000 nM | Cc1ccc(N2CCC(NCCN3CCN(C(C)C)CC3)CC2)cc1-c1[nH]c2ccccc2c1C
430 nM | CNC(=O)c1ccc2[nH]c(-c3cccc(N4CCC(NCCN5CCN(C(C)C)CC5)CC4)c3)cc2c1
24000 nM | CC(C)N1CCN(CCNC2CCN(c3cccc(-c4cc5ccccc5s4)c3)CC2)CC1
440 nM | CN1CCN(CC2(NC3CCN(c4cccc(-c5cc6ccccc6[nH]5)c4)CC3)CC2)CC1
25000 nM | CN1CCC(NC2CCN(c3cncc(-c4cc5ccccc5[nH]4)c3)CC2)CC1
460 nM | CN(C)CCNC1CCN(c2cccc(-c3cc4cc(C#N)ccc4[nH]3)c2)CC1
500 nM | Cc1ccc(N2CCC(NC3CCN(C(C)C)CC3)CC2)cc1-c1cc2ccccc2[nH]1

SMILES | IC50
CC(C)N1CCN(CCNC2CCN(c3cccc(-c4cc5cc(C(F)(F)F)ccc5[nH]4)c3)CC2)CC1 | 6000 nM
Cc1ccc2[nH]c(-c3cccc(N4CCC(NCCN5CCN(C(C)C)CC5)CC4)c3)cc2c1 | 200 nM
